Assay results published in patent publication US12612409B2, “Pyrrolopyrimidines as CFTR potentiators” (Cystic Fibrosis Foundation, priority 2016, dated 2026).

Tests used:
[1] = target: T1, recombinant F508del V470 CFTR in Fischer rat thyroid (FRT) cells (Homo sapiens, UniProt P13569, DEL508-508); assay: FRT ion flux assay of F508del CFTR potentiation; format: cell-based; conditions: FRT cells expressing F508del V470 CFTR, forskolin 20 uM, 27° C. pre-incubation
T1 construct: expressed in transfected cells
Protocol: FRT Ion Flux Assay of F508del CFTR Potentiation
Fischer rat thyroid (FRT) cell lines stably expressing recombinant F508del V470 CFTR and halide-sensitive yellow fluorescent protein (Pedemonte et al., J. Clin. Invest. 115(9) 2564-71 (2005)) were seeded at 25,000 cells/well in 50 uL/well of culture medium into black-walled, clear bottom tissue-culture-treated 384-well plates (Corning, cat. no. 3712). After one day, the cells were pre-incubated at 27° C./5% CO2 for 16-24 hours. The cells were then washed with dPBS and treated with forskolin (20 uM) and test compound for 30 mi by addition of 20 uL of compound dilution buffer (dPBS containing forskolin and test compound). Plates were loaded into FLIPR384 fluorescence imaging plate reader (Molecular Devices). After an initial fluorescence reading, iodide buffer (25 uL) (composition (in mM): 137 NaI, 1.5 K2PO4, 8.1 NaH2PO4, 2.7 KCl, 0.5 MgCl2, 1 CaCl2) was added and a second fluorescence reading was made after approximately 21 seconds. Data treatment involved division of the second fluorescence reading by the initial fluorescence reading, then scaling of the resulting normalized endpoint fluorescence with respect to the responses for DMSO (0%) and a positive control potentiator (100%).

[2] = target: T2, CFTR in F508del/F508del primary CF hBE cells (Homo sapiens, UniProt P13569, DEL508-508); assay: Ussing chamber electrophysiology assay of CFTR potentiation in F508del/F508del CF bronchial epithelial cells (27° C.); format: cell-based
T2 construct: Primary cystic fibrosis human bronchial epithelial (CF hBE) cells were expanded and cultured; endogenous in cells; host or cells: primary CF human bronchial epithelial cells, genotype F508del/F508del
Excerpt: • SHELXTL, Version 5.1, Bruker AXS, 1997. • PLATON, A. L. Spek, J. Appl. Cryst. 2003, 36, 7-13. • MERCURY, C. F. Macrae, P. R. Edington, P. McCabe, E. Pidcock, G. P. Shields, R. Taylor, M. Towler and J. van de Streek, J. Appl. Cryst. 39, 453-457, 2006. • OLEX2, Dolomanov, O. V.; Bourhis, L. J.; Gildea, R. J.; Howard, J. A. K.; Puschmann, H., (2009). J. Appl. Cryst., 42, 339-341. • R. W. W. Hooft et al. J. Appl. Cryst. (2008). 41. 96-103. • H. D. Flack, Acta Cryst. 1983, A39, 867-881. Using Chamber Electrophysiology Assay of CFTR Potentiation in CF Bronchial Epithelial Cells
Primary cystic fibrosis human bronchial epithelial (CF hBE) cells were expanded and cultured according to published methods (Neuberger et al., Ch. 4 of Cystic Fibrosis, Methods in Molecular Biology vol. 741, pp. 39-54 (2011)). Well-differentiated cells (>30 days at air/liquid interface) on Snapwell filters (Corning Costar, cat. no. 3801) were mounted in Ussing chambers (Physiologic Instruments, Inc., San Diego, CA). […] HEPES buffered physiological saline (composition (in mM): 137 NaCl, 4 KCl, 1 MgCl2, 1.8 CaCl2), 10 HEPES Na) was used in both apical and basolateral chambers. Chambers were bubbled with air to promote mixing and the voltage was clamped to zero. Amiloride (30 uM), forskolin (10 uM), test compound (4 increasing concentrations), and CFTRinh-172 (20 uM) were added sequentially with 20-25 minutes between additions. Short-circuit currents were acquired and analyzed using LabScribe2. Test compound responses were scaled relative to responses for DMSO (0%) and the maximal response of a positive control potentiator (100%).

T2 sequence (P13569 with tags, fused parts or gaps DEL508-508): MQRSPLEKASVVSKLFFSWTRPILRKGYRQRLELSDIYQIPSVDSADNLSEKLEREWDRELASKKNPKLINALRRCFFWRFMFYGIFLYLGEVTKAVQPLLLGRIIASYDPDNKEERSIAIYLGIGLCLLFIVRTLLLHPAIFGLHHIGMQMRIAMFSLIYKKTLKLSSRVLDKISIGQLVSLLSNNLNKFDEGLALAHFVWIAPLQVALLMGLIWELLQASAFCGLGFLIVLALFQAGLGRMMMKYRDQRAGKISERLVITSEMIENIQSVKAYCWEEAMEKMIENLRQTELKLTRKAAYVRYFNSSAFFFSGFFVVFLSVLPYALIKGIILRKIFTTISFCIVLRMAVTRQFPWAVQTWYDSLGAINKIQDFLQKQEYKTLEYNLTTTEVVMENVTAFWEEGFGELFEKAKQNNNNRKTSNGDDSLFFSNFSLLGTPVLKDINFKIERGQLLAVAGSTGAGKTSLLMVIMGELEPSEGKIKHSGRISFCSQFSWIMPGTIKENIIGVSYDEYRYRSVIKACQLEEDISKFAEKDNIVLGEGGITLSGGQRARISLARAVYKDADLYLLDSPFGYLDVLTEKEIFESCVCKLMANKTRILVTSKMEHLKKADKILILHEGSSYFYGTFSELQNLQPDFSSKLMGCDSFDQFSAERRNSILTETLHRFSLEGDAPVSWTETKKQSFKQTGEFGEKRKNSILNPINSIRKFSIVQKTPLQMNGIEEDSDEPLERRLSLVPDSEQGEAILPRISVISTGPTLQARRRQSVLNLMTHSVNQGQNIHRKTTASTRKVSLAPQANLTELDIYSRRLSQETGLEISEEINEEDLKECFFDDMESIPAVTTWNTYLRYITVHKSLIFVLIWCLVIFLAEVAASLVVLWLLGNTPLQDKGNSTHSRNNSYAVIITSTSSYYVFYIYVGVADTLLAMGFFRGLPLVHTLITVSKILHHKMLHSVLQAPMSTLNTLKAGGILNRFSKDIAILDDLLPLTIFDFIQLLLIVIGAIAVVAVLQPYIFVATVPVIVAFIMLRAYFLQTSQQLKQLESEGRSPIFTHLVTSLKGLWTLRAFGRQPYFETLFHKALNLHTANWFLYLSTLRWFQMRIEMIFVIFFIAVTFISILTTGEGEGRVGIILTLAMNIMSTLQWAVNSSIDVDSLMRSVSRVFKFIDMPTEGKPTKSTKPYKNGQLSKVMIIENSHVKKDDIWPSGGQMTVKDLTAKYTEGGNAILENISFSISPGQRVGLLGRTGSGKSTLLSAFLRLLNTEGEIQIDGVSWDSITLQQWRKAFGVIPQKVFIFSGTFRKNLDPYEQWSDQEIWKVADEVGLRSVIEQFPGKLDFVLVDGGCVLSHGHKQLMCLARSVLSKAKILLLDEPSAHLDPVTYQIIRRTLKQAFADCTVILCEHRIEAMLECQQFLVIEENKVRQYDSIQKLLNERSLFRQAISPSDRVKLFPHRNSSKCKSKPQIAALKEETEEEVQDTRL
T1 sequence (P13569 with tags, fused parts or gaps DEL508-508): as above

Row | EC50 [1] [nM] | EC50 [2] [nM] | SMILES
1 | 6.66 | 22.5 | Cc1c(C(C)n2c(C#N)c(-c3cnc(C(F)(F)F)nc3)c3c(N)ncnc32)nnn1-c1ccccc1F (single isomer, unassigned) [Example 12, 4-amino-7-(1-(1-(2-fluorophenyl)-5-methyl-1H-1,2,3-triazol-4-yl)ethyl)-5-(2-(trifluoromethyl)pyrimidin-5-yl)-7H-pyrrolo[2,3-d]pyrimidine-6-carbonitrile]
2 | 2670 | 127 | Nc1ncnc2c1c(-c1ccc(Cl)cc1)cn2Cc1cc(C2CC2)no1 [Example 280, 5-(4-Chlorophenyl)-7-[(3-cyclopropyl-1,2-oxazol-5-yl)methyl]-7H-pyrrolo[2,3-d]pyrimidin-4-amine]
3 | 38.6 | 9.17 | CCC(c1cn(-c2ccc(F)c(F)c2)nn1)n1cc(-c2cc(F)cnc2OC)c2c(N)ncnc21 (single isomer, unassigned; enantiomer 1) [Example 155, 7-{1-[1-(3,4-Difluorophenyl)-1H-1,2,3-triazol-4-yl]propyl}-5-(5-fluoro-2-methoxypyridin-3-yl)-7H-pyrrolo[2,3-d]pyrimidin-4-amine, enantiomer 1]
4 | 918 | 103 | COc1cnc(-c2cn(C(C)c3cc(-c4ccccc4F)no3)c3ncnc(N)c23)cn1 (stereo not shown) [Example 191, 7-{1-[3-(2-Fluorophenyl)-1,2-oxazol-5-yl]ethyl}-5-(5-methoxypyrazin-2-yl)-7H-pyrrolo[2,3-d]pyrimidin-4-amine]
5 | 28.8 | 65.9 | Nc1ncnc2c1c(-c1cnc(C(F)(F)F)nc1)cn2Cc1cnn(-c2ccccc2F)c1 [Example 57, 7-((1-(2-fluorophenyl)-1H-pyrazol-4-yl)methyl)-5-(2-(trifluoromethyl)pyrimidin-5-yl)-7H-pyrrolo[2,3-d]pyrimidin-4-amine]
6 | 180 | 245 | COc1ncccc1-c1cn(C2(c3cn(-c4ccccc4F)nn3)CC2)c2ncnc(N)c12 [Example 298, 7-{1-[1-(2-Fluorophenyl)-1H-1,2,3-triazol-4-yl]cyclopropyl}-5-(2-methoxypyridin-3-yl)-7H-pyrrolo[2,3-d]pyrimidin-4-amine]
7 | 79.3 | 184 | COc1ncccc1-c1cn(C(C)c2cn(-c3ccccc3F)nn2)c2ncnc(N)c12 (stereo not shown) [Example 215, 7-{1-[1-(2-Fluorophenyl)-1H-1,2,3-triazol-4-yl]ethyl}-5-(2-methoxypyridin-3-yl)-7H-pyrrolo [2,3-d]pyrimidin-4-amine]
8 | 23.6 | 13 | COc1ncc(-c2c(C#N)n(C(C)c3cc(-c4ccccc4F)no3)c3ncnc(N)c23)cn1 (single isomer, unassigned) [Example 14, 4-amino-7-{1-[3-(2-fluorophenyl)-1,2-oxazol-5-yl]ethyl}-5-(2-methoxypyrimidin-5-yl)-7H-pyrrolo[2,3-d]pyrimidine-6-carbonitrile]
9 | 1200 | 706 | CC(c1cn(-c2ccccc2F)nn1)n1cc(C2CC2)c2c(N)ncnc21 (single isomer, unassigned) [Example 108, 5-Cyclopropyl-7-{1-[1-(2-fluorophenyl)-1H-1,2,3-triazol-4-yl]ethyl}-7H-pyrrolo[2,3-d]pyrimidin-4-amine]
10 | 0.87 | 0.45 | CCC(c1cnn(-c2ccc(F)cc2F)c1)n1c(C#N)c(-c2cnc(C(F)(F)F)nc2)c2c(N)ncnc21 (single isomer, unassigned) [Example 21, 4-Amino-7-{1-[1-(2,4-difluorophenyl)-1H-pyrazol-4-yl]propyl}-5-[2-(trifluoromethyl)pyrimidin-5-yl]-7H-pyrrolo[2,3-d]pyrimidine-6-carbonitrile]
11 | 124 | 50.3 | COc1nccnc1-c1cn(Cc2cn(-c3ccccc3F)nn2)c2ncnc(N)c12 [Example 296, 7-{[1-(2-Fluorophenyl)-1H-1,2,3-triazol-4-yl]methyl}-5-(3-methoxypyrazin-2-yl)-7H-pyrrolo[2,3-d]pyrimidin-4-amine]
12 | 214 | 48.8 | CCC(c1cn(-c2cccc(F)c2F)nn1)n1cc(-c2cc(F)cnc2OC)c2c(N)ncnc21 (single isomer, unassigned; enantiomer 2) [Example 170, 7-{1-[1-(2,3-Difluorophenyl)-1H-1,2,3-triazol-4-yl]propyl}-5-(5-fluoro-2-methoxypyridin-3-yl)-7H-pyrrolo[2,3-d]pyrimidin-4-amine, enantiomer 2]
13 | 60.6 | 133 | CC(c1cn(-c2ccccc2F)nn1)n1cc(C2CC2)c2c(N)ncnc21 (stereo not shown) [Example 238, 5-Cyclopropyl-7-{1-[1-(2-fluorophenyl)-1H-1,2,3-triazol-4-yl]ethyl}-7H-pyrrolo[2,3-d]pyrimidin-4-amine]
14 | 90.6 | 39.6 | CC(c1cn(-c2ncccc2F)nn1)n1cc(-c2ccc(OC3CC3)cc2)c2c(N)ncnc21 (stereo not shown) [Example 214, 5-[4-(Cyclopropoxy)phenyl]-7-{1-[1-(3-fluoropyridin-2-yl)-1H-1,2,3-triazol-4-yl]ethyl}-7H-pyrrolo[2,3-d]pyrimidin-4-amine]
15 | 11.7 | 3.87 | CCC(c1cn(-c2cc(F)ccc2F)nn1)n1cc(-c2cc(F)cnc2OC)c2c(N)ncnc21 (single isomer, unassigned; enantiomer 1) [Example 171, 7-{1-[1-(2,5-Difluorophenyl)-1H-1,2,3-triazol-4-yl]propyl}-5-(5-fluoro-2-methoxypyridin-3-yl)-7H-pyrrolo[2,3-d]pyrimidin-4-amine, enantiomer 1]
16 | 359 | 141 | CC(c1cn(-c2ccc(F)cc2F)nn1)n1c(C#N)c(-c2ccc(OC3CC3)nc2)c2c(N)ncnc21 (single isomer, unassigned; enantiomer 2) [Example 321, 4-Amino-5-[6-(cyclopropyloxy)pyridin-3-yl]-7-{1-[1-(2,4-difluorophenyl)-1H-1,2,3-triazol-4-yl]ethyl}-7H-pyrrolo[2,3-d]pyrimidine-6-carbonitrile, enantiomer 2]
17 | 69 | 69 | CCC(c1cn(-c2ccc(OC)nc2)nn1)n1cc(-c2cnc(C(F)(F)F)nc2)c2c(N)ncnc21 (single isomer, unassigned; enantiomer 1) [Example 309, 7-{1-[1-(6-Methoxypyridin-3-yl)-1H-1,2,3-triazol-4-yl]propyl}-5-[2-(trifluoromethyl)pyrimidin-5-yl]-7H-pyrrolo[2,3-d]pyrimidin-4-amine, enantiomer 1]
18 | 259 | 64.7 | CC(c1cn(CC2CCC2)nn1)n1cc(-c2ccc(Cl)cc2)c2c(N)ncnc21 (stereo not shown) [Example 255, 5-(4-Chlorophenyl)-7-{1-[1-(cyclobutylmethyl)-1H-1,2,3-triazol-4-yl]ethyl}-7H-pyrrolo[2,3-d]pyrimidin-4-amine]
19 | 289 | 38.3 | Cc1c(-c2ccc(Cl)cc2)c2c(N)ncnc2n1C(C)c1cn(-c2ccccc2F)nn1 (stereo not shown) [Example 257, 5-(4-Chlorophenyl)-7-{1-[1-(2-fluorophenyl)-1H-1,2,3-triazol-4-yl]ethyl}-6-methyl-7H-pyrrolo[2,3-d]pyrimidin-4-amine]
20 | 230 | 57.6 | CCC(c1cn(-c2ccc(F)c(F)c2)nn1)n1cc(-c2cc(F)cnc2OC)c2c(N)ncnc21 (single isomer, unassigned; enantiomer 2) [Example 156, 7-{1-[1-(3,4-Difluorophenyl)-1H-1,2,3-triazol-4-yl]propyl}-5-(5-fluoro-2-methoxypyridin-3-yl)-7H-pyrrolo[2,3-d]pyrimidin-4-amine, enantiomer 2]
